The text below walks through data of the NIST ThermoML archive (doi:10.1016/j.jct.2017.02.025).

± gives the expanded uncertainty stated by the source.

A short description of data set [1]: Molar enthalpy of transition or fusion. The note with it: Crystal; DSC.
The conditions of data set [2]: Crystal; DTA.

As for `CCCCCCCCCCCCCCCCCCCCCCCCCCCCO` [1-octacosanol], the “Molar enthalpy of transition or fusion” value in data set [1] turned out to be 25.9 ± 0.598 kcal/mol. The Normal melting temperature in data set [2] stood at 82.8 ± 1.1 °C.
